Among the test systems are SK-MEL-28; MDA-N; PC-3; Hs-578T; OVCAR-5; BT-549; SF-539; RPMI-8226; MCF7; NCI/ADR-RES; MDA-MB-231; RXF 393; SF-295; DU-145; T47D; Malme-3M; HOP-92; HT-29; SNB-78; HOP-18.
What all share (assay): inhibition of tumour cell growth, NCI panel, 48 h

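Where inhibition never reached the appropriate level, the endpoint shown equals the highest concentration tested. Otherwise, values were interpolated linearly from a five-concentration, 48-hour dose response in 96-well plates. Here, GI50 denotes the concentration required for 50% inhibition of growth.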 Activity calls are given as the source filed them. Cut-off read from the data, not from the text of the source: active = GI50 up to about 1.1 µM and inactive = higher. Starred links: 1 amine or outer side, 2 acyl side, 3 side chain; linkers in the order of their positions; H or OH if unused. Positions of bridges follow the written chain, without caps; N, C: chain ends. Non-standard residues stand in square brackets, D forms with d. Residues, ends and D or L forms follow the SMILES beside them. ξ: configuration not given here. X11 = CCC(C)C(N[*:1])C(O)CC(=O)O[C@H](C(=O)C(C)C(=O)[*:2])C(C)C; X10 = O=C([C@@H]1CC(O)CN1[*:1])[*:2]; NMeY = CN[C@@H](Cc1ccc(O)cc1)C(=O)O; ξNMeL = CNC(CC(C)C)C(=O)O; ξT = CC(O)C(N)C(=O)O

`CC(=O)c1nccc2c1c(C)nc1ccccc12`: the GI50 in the test with SK-MEL-28 was > 100 µM (inactive); in the test on MDA-N, 53.6 µM (inactive); in the test on PC-3, 85.1 µM (inactive); with Hs-578T, 30.3 µM (inactive); in the test with OVCAR-5 it was > 100 µM (inactive); in the test on BT-549, 97.3 µM (inactive). The GI50 is > 100 µM (inactive) with SF-539; 16.4 µM (inactive) in the test on RPMI-8226; 39.7 µM (inactive) in the test with MCF7; > 100 µM (inactive) with NCI/ADR-RES; 38.3 µM (inactive) in the test on MDA-MB-231; 38.5 µM (inactive) in the test with RXF 393. The GI50 in the test with SF-295 is 53.7 µM (inactive); with DU-145 it was > 100 µM (inactive); with T47D it was 43.4 µM (inactive); with Malme-3M it was > 100 µM (inactive); in the test on HOP-92, 25.8 µM (inactive); with HT-29 it was 74.5 µM (inactive).
For the molecule `Cc1cc(O)nc(NN2C(Cl)C(=O)C2c2cccc([N+](=O)[O-])c2)n1` (stereo unspecified), the GI50 is 17.1 µM (inactive) with SK-MEL-28; > 100 µM (inactive) in the test with OVCAR-5; 32.2 µM (inactive) in the test with SNB-78; 13.7 µM (inactive) with RPMI-8226; 18.5 µM (inactive) with HOP-18; 10 µM (inactive) in the test with RXF 393. The results for the GI50 in the test on HOP-92 and with HT-29 were 19.3 µM (inactive) and 19.6 µM (inactive), respectively.
For the molecule `COC(=O)C(=O)C(C(=O)OC)C(=O)C(=O)Nc1cc(Cl)c(Cl)cc1Cl` (stereo unspecified), the GI50 was > 100 µM (inactive) in the test on SK-MEL-28; > 100 µM (inactive) in the test on OVCAR-5; > 100 µM (inactive) in the test on SF-539; 24.9 µM (inactive) in the test on RPMI-8226; > 100 µM (inactive) in the test on HOP-18; > 100 µM (inactive) in the test on RXF 393. In addition, the GI50 in the test on SF-295 is > 100 µM (inactive); with Malme-3M, > 100 µM (inactive); with HOP-92, > 100 µM (inactive); with HT-29, 49.8 µM (inactive).
Consider `COc1ccc(CCC2NCCc3cc(OC)c(OC)cc32)cc1` (stereo unspecified), for which the GI50 is > 100 µM (inactive) in the test on SK-MEL-28; > 100 µM (inactive) in the test on OVCAR-5; 79.8 µM (inactive) with SNB-78; > 100 µM (inactive) in the test on SF-539; > 100 µM (inactive) in the test on RPMI-8226; > 100 µM (inactive) with HOP-18. The GI50 in the test with SF-295, in the test with Malme-3M and in the test on HT-29 was > 100 µM (inactive) throughout.
Consider `N#CN=C(N(Cc1ccccc1)Cc1ccccc1)N(Cc1ccccc1)Cc1ccccc1`, for which the GI50 was 45.2 µM (inactive) in the test with OVCAR-5; > 100 µM (inactive) in the test on SNB-78; 46.7 µM (inactive) with SF-539; 3.88 µM (inactive) with RPMI-8226; > 100 µM (inactive) in the test with HOP-18; > 100 µM (inactive) in the test on SF-295. The values for the GI50 in the test on Malme-3M and with HT-29 were 36.7 µM (inactive) and 6.22 µM (inactive), respectively.
As to `O=C1/C(=C/c2ccccc2)CN(C(=O)C(Cl)(Cl)Cl)C/C1=C\c1ccccc1`, the GI50 in the test with SK-MEL-28 is 1.73 µM (inactive); in the test with OVCAR-5, 2.51 µM (inactive); in the test on SNB-78, 2.72 µM (inactive); in the test with SF-539 it was 3.12 µM (inactive); in the test with RPMI-8226, 0.0348 µM (active); in the test on HOP-18 it was 2.96 µM (inactive). For the same molecule, the GI50 in the test on RXF 393 was 1.89 µM (inactive); with SF-295 it was 1.82 µM (inactive); in the test on Malme-3M it was 2.11 µM (inactive); with HT-29 it was 1.23 µM (inactive).
Take `N#CCC(=O)N/N=C1\C(=O)N(c2ccc(Cl)cc2)C(=O)C(=O)C1c1nc2ccccc2o1` (stereo unspecified): the GI50 in the test on SK-MEL-28, in the test with SNB-78, in the test with SF-539, in the test with HOP-18, in the test on RXF 393 and in the test with SF-295 was > 100 µM (inactive) each time. Also, the GI50 was > 100 µM (inactive) in the test on Malme-3M, 91.8 µM (inactive) with HOP-92 and > 100 µM (inactive) with HT-29.
Regarding `CC1=Nc2ccccc2C12C(c1ccccc1)C(c1ccccc1)C(=O)N1c3ccccc3CC12` (stereo unspecified), the GI50 in the test with SK-MEL-28, in the test with OVCAR-5, with SNB-78, in the test with SF-539, in the test on RPMI-8226 and in the test with RXF 393 was > 100 µM (inactive) in each case. For the same molecule, the GI50 in the test on SF-295, with Malme-3M, in the test with HOP-92 and with HT-29 was > 100 µM (inactive) throughout.
As for `CC(=O)c1cccc(NC(=O)C(=O)C(C(=O)c2ccccc2F)C2OC(=O)c3ccccc32)c1` (stereo unspecified), the GI50 was 50.9 µM (inactive) with SK-MEL-28; 64.3 µM (inactive) in the test with OVCAR-5; 12.5 µM (inactive) in the test with SNB-78; > 10 µM (inactive) with SF-539; 20.3 µM (inactive) with RPMI-8226; 28.1 µM (inactive) with RXF 393. The GI50 in the test with SF-295 was 42.6 µM (inactive); in the test with HOP-92, > 100 µM (inactive); with HT-29, 35.9 µM (inactive).
As to `CCOC(=O)c1c(-c2ccccc2)c(C(OC(c2ccccc2)c2c(-c3ccccc3)c(C(=O)OCC)n3ccccc23)c2ccccc2)c2ccccn12` (stereo unspecified), the GI50 in the test with SK-MEL-28, with OVCAR-5, with SNB-78, with RPMI-8226, in the test with HOP-18 and in the test on RXF 393 was > 100 µM (inactive) in each case. For the same molecule, the GI50 in the test on SF-295, in the test on Malme-3M and with HT-29 was > 100 µM (inactive) in each case.
With `CCOC(=O)c1nc2ccccc2n(CC)c1=O`, the GI50 in the test with SK-MEL-28, in the test with MDA-N, in the test on PC-3, in the test on Hs-578T, with OVCAR-5 and in the test with BT-549 was > 100 µM (inactive) each time. Besides, the GI50 in the test with SF-539, in the test with RPMI-8226, in the test with MCF7, with NCI/ADR-RES, in the test on MDA-MB-231 and in the test with RXF 393 was > 100 µM (inactive) each time. In addition, the GI50 in the test on SF-295, with DU-145, in the test on T47D, in the test with Malme-3M, in the test on HOP-92 and with HT-29 was > 100 µM (inactive) in each case.
For `CCC(C)C1NC(=O)C(NC(=O)C(CC(C)C)N(C)C(=O)[C@@H]2CC(O)CN2)C(C)OC(=O)[C@H](Cc2ccc(OC)cc2)N(C)C(=O)[C@@H]2CCCN2C(=O)[C@H](CC(C)C)NC(=O)C(C)C(=O)[C@H](C(C)C)OC(=O)CC1O` (stereo partly specified) (H-[X10][ξNMeL][ξT][X11]LP[NMeY](Me); ester 3-C), the GI50 in the test with SK-MEL-28 was < 0.001 µM (active); in the test on MDA-N, 0.00561 µM (active); in the test with PC-3 it was 0.0135 µM (active); in the test with Hs-578T, < 0.001 µM (active); with OVCAR-5, 0.0275 µM (active); in the test on BT-549 it was 0.00609 µM (active). Moreover, the GI50 was 0.00157 µM (active) in the test with SF-539; 0.0082 µM (active) with RPMI-8226; < 0.001 µM (active) with MCF7; 1.45 µM (inactive) in the test with NCI/ADR-RES; 0.0224 µM (active) in the test with MDA-MB-231; 0.0115 µM (active) in the test with RXF 393. Further, the GI50 with SF-295 is 0.0113 µM (active); in the test with DU-145, 0.0363 µM (active); with T47D it was 0.0035 µM (active); in the test with Malme-3M it was 0.00336 µM (active); with HOP-92, 0.0189 µM (active); in the test on HT-29, 0.00445 µM (active).

Values taken from ChEMBL document CHEMBL1201862, “PubChem BioAssay data set” (2004).
